Results on one compound are retold here after patent US20120202840A1, “Use of Flubendazole and Vinca Alkaloids for Treatment of Hematological Diseases” (priority 2009, published 2012).

Where two headings read alike, the source gives them in different places.

Data set [1] has as its system A549.EpoB40. The data set can be described thus: MTS assay, A549.EpoB40 (β-tubulin mutant). Format: cell-based. The protocol:
(§1) Next, whether microtubule inhibition was functionally important for flubendazole's cytotoxicity was determined.
(§2) Leukemia (U937, MDAY, CEM, CEM-VBL) and solid tumor cell lines (PPC-1, HeLa) were cultured in RPMI 1640 medium. The epidermoid carcinoma cell lines KB-3-1 and KB-4.0-HTI^23 were grown in Dulbecco's Modified Eagle Medium. The lung carcinoma cell lines A549 and A549.EpoB40 were grown in RPMI with the latter supplemented with 20% fetal calf serum (FCS), and 40 nM epothilone B.^24 Leukemia cell lines OCI-AML2, CEM, and NB4 and all the myeloma cell lines (OPM2, KMS11, JJN3 LP1, H929, L1, KMS12, KSM18 and OCI My5) were maintained in Iscove's Modified Dulbecco's Medium (IMDM). TEX cells were maintained in IMDM, 15% FCS, 1% penicillin-streptomycin, 2 mM L-glutamine, 20 ng/mL SCF, 2 ng/mL IL-3. Unless otherwise noted, all media were supplemented with 10% FCS, 100 units/mL of streptomycin and 100 μg/mL of penicillin (all from Hyclone, Logan, Utah). Cells were incubated in a humidified air atmosphere containing 5% CO2 at 37° C.
(§3) Cell growth and viability was measured using the 3-(4,5-dimethylthiazol-2-yl)-5-(3-carboxymethoxyphenyl)-2-(4-sulfophenyl)-2H-tetrazolium inner salt (MTS) reduction assay (Promega, Madison, Wis.) according to the manufacture's protocol and as previously described^25. […] Optical density (OD) was measured at 490 nm.
Background: Formazan colour is commonly taken as a measure of viable cells.

The subject of data set [2] is OPM2 cells. The protocol:
(C) Sub-lethally irradiated SCID mice were injected subcutaneously with OPM2 cells (n=20; 10 per group). […] Tumor volume and body weight was measured over time. After 17 days, mice were sacrificed and tumors were excised, measured and weighted.
(§4) Sub-lethally irradiated SCID mice were injected subcutaneously in the left flank with leukemia OCI-AML2 (2.0×10^6) or myeloma OPM2 (1.0×10^7) cells. Mice were then randomly assigned to receive flubendazole (in 0.9% NaCl and 0.01% tween-80) or vehicle control (0.9% NaCl and 0.01% tween-80) intraperitoneally. […] Tumor volumes (tumor length×width^2×0.5236) were monitored daily using calipers. At the end of the experiment (16-18 days), mice were sacrificed, tumors excised and tumor volume and weight measured. All animal studies were carried out according to the regulations of the Canadian Council on Animal Care and with the approval of the local ethics review board.

Data set [3] relates to OCI-AML2 cells. In words: MTS cell growth and viability assay, OCI-AML2. It counts as cell-based. The conditions noted are these: OCI-AML2, 72 h, MTS assay.
Experimental: (A) OCI-AML2 cells were treated for 72 h with increasing concentrations of benzimidazoles. After incubation, cell growth and viability was measured by the MTS assay. Data represent the mean percentage of viable cells ±SD from a representative experiment.
Cell growth and viability was measured using the 3-(4,5-dimethylthiazol-2-yl)-5-(3-carboxymethoxyphenyl)-2-(4-sulfophenyl)-2H-tetrazolium inner salt (MTS) reduction assay (Promega, Madison, Wis.) according to the manufacture's protocol and as previously described^25. Cells were seeded in 96 well plates and treated with drug for 72 h. Optical density (OD) was measured at 490 nm.
Data set [4] has as its system OCI-AML2 cells. The data set can be described thus: Radioactive glucose uptake assay. Format: cell-based. To be noted: concentrations up to 4.0 μM, 16 hours. The protocol:
(A) OCI-AML2 cells were incubated with increasing concentrations of flubendazole for 16 h and the uptake of 3H-deoxy-D-glucose was measured as in the materials and methods. Data represent the mean±SD glucose uptake. A representative experiment is shown.
The effect of flubendazole on the uptake of 2-deoxy-D-glucose in OCI-AML2 cells was performed using a radioactive glucose uptake assay as described by Wood et al^27. […] Uptake of 2-deoxy-D-glucose was initiated by the addition of 10 μM 2-deoxy-D-glucose and 1 μCi/mL 2-[^3H]deoxy-D-glucose in the HEPES-buffered saline solution at room temperature. After 5 min of incubation, 2-deoxy-D-glucose uptake was terminated by rinsing the cells three times with a 25 mM ice-cold glucose solution, followed by cell disruption with 0.05 N NaOH. Protein concentration was measured by the modified Bradford protein assay and cell-associated radioactivity was determined by scintillation counting. The mean counts per minute are expressed as picomoles/min/mg protein.

Data set [5] has as its system PPC-1 cells. The data set can be described thus: Cell cycle analysis (PI, flow cytometry), PPC-1. It counts as cell-based. The conditions noted are these: PPC-1, 1.0 μM, 24 h. The protocol:
OCI-AML2 cells (A) or PPC-1 cells (B) were incubated with 1.0 μM flubendazole or buffer control for 24 h. Cells were then stained with PI and the DNA content was measured by flow cytometry. A representative figure is shown.
Cell cycle analysis was performed as described by Mao et al^31. Briefly, OCI-AML2 or PPC-1 cells were harvested, washed with cold PBS and resuspended in PBS and cold absolute ethanol. Cells were then treated with 100 ng/mL of DNase-free RNase A (Invitrogen, Carlsbad, Calif.) at 37° C. for 30 min, washed with cold PBS, resuspended in PBS and incubated with 50 μg/mL of propidium iodine (PI) for 15 min at room temperature in the dark. DNA content was measured by flow cytometry (FACSCalibur, Becton Dickinson, Florida, USA) and analyzed with FlowJo software version 7.0 (TreeStar, Ashland, Oreg.).
For orientation: Flow cytometry measures light scatter and fluorescence of single cells or particles in a stream.

For data set [6] the following is noted: rats, up to 150 mg/kg/day for 3 months; cited from earlier work.
In data set [7] the test system is A549. The data set can be described thus: MTS assay, A549. It counts as cell-based. The conditions noted are these: Homo sapiens, 3 replicates. As for the experimental part:
as §1, §2, §3

Data set [8] concerns OCI-AML2 cells. As for the experimental part:
Sub-lethally irradiated SCID mice were injected subcutaneously with OCI-AML2 cells (n=20; 10 per group). After implantation, mice were treated with 50 mg/kg flubendazole (A), 20 mg/kg flubendazole (B), or vehicle control by intraperitoneal injection daily. Tumor volume was measured over time. After 16 days (20 mg/kg dose) or 18 days (50 mg/kg dose), mice were sacrificed and tumors were excised, measured and weighted.
Sub-lethally irradiated SCID mice were injected subcutaneously with OCI-AML2 cells (n=40; 10 per group). […] After 16 (C) or 18 (D) days, mice were sacrificed and tumors were excised, measured and weighted. Data represent the mean±SD tumor weight.
as §4

The conditions of data set [9]: sheep, cited from earlier work.
Setting [10] is: OPM2 xenograft, 50 mg/kg daily intraperitoneally for 17 days, vs vehicle, p<0.05.
[11] abbreviates: OCI-AML2 xenograft, 20 or 50 mg/kg daily intraperitoneally, vs vehicle, p<0.0001.
The mark [12] stands for this setting: single dose of 5 mg/kg intravenously.

As to `COC(=O)Nc1nc2ccc(C(=O)c3ccc(F)cc3)cc2[nH]1` [flubendazole], the IC50 (usually the point on the concentration scale where inhibition reaches its midpoint) in data set [1] (A549.EpoB40, MTS assay, 3 replicates) was determined as 800 ± 200 nM; in data set [7], 4100 ± 1300 nM. Further, the “IC50 lower in A549.EpoB40 than in A549 control cells” value in data set [1] (ratio of IC50 values of Table 1) is 5 fold. Also, the tumor growth result in data set [2] (setting [10]) and in [8] (setting [11]) was “significantly delayed tumor growth” in each case. For the same compound, the tumor weights entry in [2] (setting [10]) and in data set [8] (setting [11]) was “reduced tumor weights” throughout. In addition, the “weight loss, behavioral changes or gross organ toxicity” value in data set [2] (mouse, in vivo) was “no evidence of weight loss, behavioral changes or gross organ toxicity”; in [8] (mouse, in vivo), “no evidence of weight loss, behavioral changes or gross organ toxicity”. For the same compound, the “rank of potency in panel of 8 benzimidazoles” value in data set [3] was “most potent”. In addition, in data set [4], the “uptake of 3H-deoxy-D-glucose” value was “did not alter glucose uptake”. In addition, in data set [5], the cell cycle result was “arrested cells in the G2 phase”. In addition, the toxicity entry in data set [6] is “No toxicity was noted”; in data set [9] (setting [12]), “no toxicity was observed”. The estimated half life in [9] (after oral administration) is 6.5 h. Further, in [9] (oral), the “fraction of flubendazole absorbed” value is on record as 18%. Besides, the area under the curve (AUC) is 22 µM·h in data set [9] (single dose of 5 mg/kg intravenously, over 36 hours) and 6530 ng·h/mL in [9] (setting [12]).
